Data: patent US20220274938A1, “5-[(1S)-1-(4-BROMOPHENOXY)ETHYL]-2H-TETRAZOLE DERIVATIVES AND RELATED COMPOUNDS AS CLC-1 ION CHANNEL INHIBITORS FOR TREATING NEUROMUSCULAR DISORDERS” (NMD PHARMA A/S, priority 2019, published 2022)

Key:
[1] = system: isolated rat soleus muscles; assay: Measurement of force in an in vitro model: isolated rat soleus nerve-muscle preparation with tubocurarine; assay type: cell-based; conditions: 50 μM test compound, after 40 mins of compound exposure, 115 nM tubocurarine for 90 mins; for activation at 50 µM: Rattus norvegicus, 40 min, read-out: Point increase (%) of initial force that was restored
Method: FIG. 2. […] Force traces from a representative muscle stimulated to contract in 1) control condition before addition of neuromuscular blocking agent, 2) the force response to stimulation after 90 minutes incubation with Tubocurarine. […] The traces presented in panel A (1, 2, 3), correspond to the dotted lines in panel B, respectively.
Recovery of force is quantified as the percentage of the force prior to tubocurarine that is recovered by the compound.
The current disclosure relates to compounds that inhibit CIC-1 ion channels and increase muscle excitability and thereby improve muscle function in clinical conditions where muscle activation is failing. Such conditions result in loss of contractile function of skeletal muscle, weakness and excessive fatigue. In this series of experiments the compounds were tested for their ability to restore contractile function of isolated rat muscle when the neuromuscular transmission had been compromised akin to neuromuscular disorders.
Experimentally, soleus muscles from 4-5 week old rats were isolated with the motor nerve remaining attached. The nerve-muscle preparations were mounted in experimental setups that enabled electrical stimulation of the motor nerve. Stimulation of the motor nerve led to activation of the muscle fibres and ensuing force production that was recorded. The nerve-muscle preparations were also in these experiments incubated in the standard Krebs Ringer (see example 5) and the solution was heated to 30° C. and continuously equilibrated with a mixture of 95% O2 and 5% CO2, pH˜7.4.
After mounting the nerve-muscle preparation in the experimental setup, the contractile function of the muscle was initially assessed under the control conditions (FIG. 2A). […] The experimental condition mimics the failing neuromuscular transmission in a range of neuromuscular disorders. After addition of tubocurarine the contractile force declined over the next 90 mins to 10-50% of the control force. 50 μM of the test compound was then added and the contractile force recovered despite the continued presence of tubocurarine. To quantify the ability of the compound to restore force the percentage of the initial force that was restored was determined after 40 mins of compound exposure (FIG. 2B) and the point increase is reported in Table 3.

CIC-1 ion channel = biological target: T1, CIC-1 ion channel (Rattus norvegicus, UniProt P35524); assay: Electrophysiological measurement (Gm, three micro-electrodes) of compound inhibition of CIC-1 in rat soleus muscle fibres; assay type: cell-based; conditions: approx. 30° C., four increasing compound concentrations, read-out: EC50 (inhibition of CIC-1 ion channel, reduction of Gm)
T1 construct: CIC-1 channels in native tissue of rat skeletal muscle fibres; from tissue; host or cells: whole soleus muscle of 12-14 week old Wistar rats
T1 sequence (P35524 1-994): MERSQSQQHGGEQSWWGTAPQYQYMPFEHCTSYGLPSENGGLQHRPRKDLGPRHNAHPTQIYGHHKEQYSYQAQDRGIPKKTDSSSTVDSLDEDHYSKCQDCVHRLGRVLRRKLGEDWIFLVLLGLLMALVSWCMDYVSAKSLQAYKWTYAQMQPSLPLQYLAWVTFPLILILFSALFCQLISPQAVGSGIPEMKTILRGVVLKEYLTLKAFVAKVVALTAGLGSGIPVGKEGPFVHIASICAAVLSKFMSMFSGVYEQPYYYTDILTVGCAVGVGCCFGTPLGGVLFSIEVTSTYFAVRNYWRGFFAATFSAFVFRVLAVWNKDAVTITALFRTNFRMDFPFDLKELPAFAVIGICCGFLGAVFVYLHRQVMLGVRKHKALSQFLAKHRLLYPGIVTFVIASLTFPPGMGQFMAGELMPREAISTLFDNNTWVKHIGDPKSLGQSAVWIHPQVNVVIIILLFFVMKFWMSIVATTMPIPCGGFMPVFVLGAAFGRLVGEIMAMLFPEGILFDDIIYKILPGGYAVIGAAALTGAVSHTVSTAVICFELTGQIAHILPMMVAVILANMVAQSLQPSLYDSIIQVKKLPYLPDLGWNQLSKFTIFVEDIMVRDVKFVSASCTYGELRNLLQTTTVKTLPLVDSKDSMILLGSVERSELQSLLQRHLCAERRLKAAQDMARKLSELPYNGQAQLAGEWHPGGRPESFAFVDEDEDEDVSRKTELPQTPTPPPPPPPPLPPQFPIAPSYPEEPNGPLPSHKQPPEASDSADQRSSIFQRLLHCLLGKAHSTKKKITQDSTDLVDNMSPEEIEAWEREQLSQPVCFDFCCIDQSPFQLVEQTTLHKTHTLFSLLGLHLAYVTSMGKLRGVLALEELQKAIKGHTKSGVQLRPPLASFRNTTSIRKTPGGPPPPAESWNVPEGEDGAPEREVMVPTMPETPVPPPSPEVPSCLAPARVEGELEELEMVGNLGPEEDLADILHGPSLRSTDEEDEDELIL
Excerpt: FIG. 1. […] Please note that the drawing illustrates only the impaled fibre although it is part of an intact muscle that contains many such fibres. All electrodes recorded the membrane potential of the fibre and the two peripheral electrodes were used to inject current (−30 nA, 50 ms). The electrodes were inserted with known inter-electrode distances (X1, X2 and X3). After insertion, current was passed first via the V1 electrode and then via the V3 electrode. The resulting deflections in the membrane voltage were measured by the other electrodes. The steady state deflections in membrane potential were measured and divided by the magnitude of the injected current (−30 nA) to obtain transfer resistances. These were next plotted against inter-electrode distances, and fitted to an exponential function (Panel B), from which Gm could be calculated using linear cable theory. The approach described in panel A and B, was repeated for several muscle fibres in the muscle during exposure at increasing concentrations of compound E-8, with approx. 10 fibres at each concentration. Average Gm at each concentration was plotted as a function of compound concentration in panel C, and fitted to a 4-parameter sigmoidal function from which the EC50 value for the compound was obtained (dashed line)
Apparent CIC-1 affinity was reported by the concentration of compound at which 50% of the compound's full inhibition of CIC-1 was observed (EC50).
CIC-1 Cl^− ion channels generate around 80% of the total membrane conductance (Gm) in resting skeletal muscle fibres of most animals including rat and human (Bretag, A H. Muscle chloride channels. Physiological Reviews, 1987, 67, 618-724). […] CIC-1 inhibition would in such recordings be reflected by a reduction of Gm.
Experimentally, Gm was measured in individual fibres of whole rat soleus muscles using a three micro-electrodes technique described in this example and in full detail elsewhere (Riisager et al., Determination of cable parameters in skeletal muscle fibres during repetitive firing of action potentials. Journal of Physiology, 2014, 592, 4417-4429). Briefly, intact rat soleus muscles were dissected out from 12-14 week old Wistar rats and placed in an experimental chamber that was perfused with a standard Krebs Ringer solution containing 122 mM NaCl, 25 mM NaHCO3, 2.8 mM KCl, 1.2 mM KH2PO4, 1.2 mM MgSO4, 1.3 mM CaCl2, 5.0 mM D-glucose. During experiments, the solution was kept at approx. 30° C. and continuously equilibrated with a mixture of 95% O2 and 5% CO2, pH˜7.4. The experimental chamber was placed in Nikon upright microscope that was used to visualize individual muscle fibres and the three electrodes (glass pipettes filled with 2 M potassium citrate). For Gm measurements, the electrodes were inserted into the same fibre with known inter-electrode distances of 0.35-0.5 mm (V1-V2, X1) and 1.1-1.5 mm (V1-V3, X3) (FIG. 1A). The membrane potential of the impaled muscle fibre was recorded by all electrodes. Two of the electrodes were furthermore used to inject 50 ms current pulses of −30 nA. […] The steady state voltage deflection at each distance was divided by the magnitude of current injected (−30 nA) and the resulting transfer resistances were plotted against inter-electrode distance and the data was fitted to a mono-exponential function from which Gm could be calculated using linear cable theory (FIG. 1B).
To establish a dose response relationship, Gm was first determined in 10 muscle fibres in the absence of compound and then at four increasing compound concentrations with Gm determinations in 5-10 fibres at each concentration. The average Gm values at each concentration were plotted against compound concentration and the data was fitted to sigmoidal function to obtain an EC50 value (FIG. 1C).

| SMILES | activation at 50 µM [1] [%] | EC50 (CIC-1 ion channel) [µM] | also measured |
| --- | --- | --- | --- |
| CC(=O)N1CC(ON(C(C)=O)C(=O)[C@H](C)Oc2ccc(Cl)cc2)C1 [Compound C-3, (2S)-N-acetyl-N-[(1-acetylazetidin-3-yl)oxy]-2-(4-chlorophenoxy)propanamide] | 29 |  |  |
| C=Cc1cc(Cl)ccc1O[C@@H](C)c1nnn[nH]1 [Compound E-12, 5-[(1S)-1-(4-chloro-2-ethenylphenoxy)ethyl]-1H-1,2,3,4-tetrazole] | 21 |  |  |
| C[C@H](Oc1ccc(Br)cc1C(C)(F)F)C(=O)NC#N [Compound B-6] |  |  | Point increase (%) of initial force that was restored [1]: 15% |
| C[C@H](Oc1ccc(Cl)cc1)C(=O)NOCc1ccon1 [Compound C-39, (2S)-2-(4-chlorophenoxy)-N-[(1,2-oxazol-3-yl)methoxy]propanamide] | 49 |  |  |
| CC(=NO)NC(=O)[C@H](C)Oc1ccc(Br)cc1 [Compound A-6, (2S)-2-(4-bromophenoxy)-N-[1-(hydroxyimino)ethyl]propanamide] |  | 2 |  |
| C/C(=N\O)NC(=O)[C@@H](Oc1ccc(Br)cc1F)C(C)C [Compound A-4, (2S)-2-(4-bromo-2-fluorophenoxy)-N-[1(hydroxyimino)ethyl]-3-methylbutanamide] |  | 2.2 |  |
| CCC(F)(F)c1cc(Br)c(F)cc1O[C@@H](C)C(=O)NC#N [Compound B-7, (2S)-2-[4-bromo-2-(1,1-difluoropropy1)-5-fluorophenoxy]-N-cyanopropanamide] |  |  | Point increase (%) of initial force that was restored [1]: 37% |
| C[C@H](Oc1ccc(Cl)cc1)C(=O)NOCCC1CCCC1 [Compound C-71, (2S)-2-(4-chlorophenoxy)-N-(2-cyclopentylethoxy)propanamide] | 25 |  |  |
| C[C@H](Oc1ccc(Cl)cc1)C(=O)NOC(C)(C)C [Compound C-43, (2S)-N-(tert-butoxy)-2-(4-chlorophenoxy)propanamide] | 20 |  |  |
| C[C@H](Oc1ccc(Cl)cc1)c1nnn[nH]1 [Compound E-15, 5-[(1S)-1-(4-chlorophenoxy)ethyl]-1H-1,2,3,4-tetrazole] |  | 19.9 |  |
| C[C@H](Oc1ccc(Cl)cc1)C(=O)NOC1CC(F)(F)C1 [Compound C-67, (2S)-2-(4-chlorophenoxy)-N-(3,3-difluorocyclobutoxy)propanamide] | 23 |  |  |
| C[C@H](Oc1ccc(Br)cc1)c1nn[nH]n1 [Compound E-6, 5-[(1S)-1-(4-bromophenoxy)ethyl]-2H-1,2,3,4-tetrazole] | 21 |  |  |
| FCC[C@H](Oc1ccc(Br)cc1-c1ccon1)c1nn[nH]n1 [Compound E-1] | 21 |  |  |
| CC(=O)N1CCC(ON(C(C)=O)C(=O)[C@H](C)Oc2ccc(Cl)cc2)C1 (stereo partly drawn) [Compound C-16, (2S)-N-acetyl-N-[(1-acetylpyrrolidin-3-yl)oxy]-2-(4-chlorophenoxy)propanamide] | 23 |  |  |
| C[C@H](Oc1ccc(Br)cc1F)C(=O)NOC1CCC1 [Compound C-31, (2S)-2-(4-bromo-2-fluorophenoxy)-N-cyclobutoxypropanamide] | 56 |  |  |
| C[C@H](Oc1ccc(Br)cc1-c1ccon1)c1nnn[nH]1 [Compound E-7] |  | 6 |  |
| CONC(=O)[C@H](C)Oc1ccc(Cl)cc1F [Compound C-40, (2S)-2-(4-chloro-2-fluorophenoxy)-N-methoxypropanamide] | 24 |  |  |
| CC(C)ONC(=O)[C@H](C)Oc1ccc(Cl)cc1 [Compound C-84, (2S)-2-(4-chlorophenoxy)-N-(propan-2-yloxy)propanamide] |  | 11.5 |  |
| CCCONC(=O)[C@H](C)Oc1ccc(Cl)cc1 [Compound C-83, (2S)-2-(4-chlorophenoxy)-N-propoxypropanamide] |  | 3.5 |  |
| C[C@H](Oc1ccc(Cl)cc1)C(=O)NOC1CCCCO1 (stereo partly drawn) [Compound C-65, (2S)-2-(4-chlorophenoxy)-N-(oxan-2-yloxy)propanamide] | 26 |  |  |
| CC(=O)N1CCC(ON(C(C)=O)C(=O)[C@H](C)Oc2ccc(Br)cc2)C1 (stereo partly drawn) [Compound C-12, (2S)-N-acetyl-N-[(1-acetylpyrrolidin-3-yl)oxy]-2-(4-bromophenoxy)propanamide] | 18 |  |  |
| CCONC(=O)[C@H](C)Oc1ccc(Cl)cc1 [Compound C-82, (2S)-2-(4-chlorophenoxy)-N-ethoxypropanamide] |  | 9.7 |  |
| CC(=NO)NC(=O)[C@H](C)Oc1ccc(Br)cc1F [Compound A-5, (2S)-2-(4-bromo-2-fluorophenoxy)-N-[1-(hydroxyimino)ethyl]ropanamide] |  |  | Point increase (%) of initial force that was restored [1]: 30% |
| C[C@H](Oc1ccc(Cl)cc1)C(=O)NOC1CCCC1 [Compound C-70, (2S)-2-(4-chlorophenoxy)-N-(cyclopentyloxy)propanamide] |  | 4.6 |  |
| C[C@H](Oc1ccc(Cl)cc1)C(=O)NOCc1nccs1 [Compound C-66, (2S)-2-(4-chlorophenoxy)-N-[(1,3-thiazol-2-yl)methoxy]propanamide] | 21 |  |  |
